One test deals with T1, TRKA-wt kinase domain (Homo sapiens, UniProt P04629).
T1 construct: TRKA-wt (1 nM, BPS Bio, 40280) kinase domains in buffer; purchased BPS Bio 40280
Briefly: Biochemical kinase assay, TRKA-wt. The note with it: 2 mM ATP substrate solution, read-out: Ki^app TRKA-wt. The gist of the method:
(§1)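 Kinase domains (in kinase solution: ROS1-G2032R 0.5 nM, ROS1-wt 0.6 nM, TRKA 1 nM, ALK L1196M/G1202R 3 nM) were mixed with compound and a substrate solution of 2 mM ATP plus 26 μM fluorogenic AQT0101 (ALK, ROS1) or AQT0104 (TRKA) in HEPES pH 7.5/MgCl2. Fluorescence was followed for 120 min at 30° C; Ki^app was obtained by Morrison fit of initial rates.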

Test [1] addresses T2, ALK L1196M/G1202R kinase domain (Homo sapiens, UniProt Q9UM73, G1202R/L1196M).
T2 construct: TRKA-wt (1 nM, BPS Bio, 40280) kinase domains in buffer; purchased SignalChem A19-12NG
In words: Biochemical kinase assay, ALK L1196M/G1202R. The following applies: 2 mM ATP substrate solution, read-out: Ki^app ALK-L1196M-G1202R. The gist of the method: as §1

The target in another test is T3, ROS1-wt kinase domain (Homo sapiens, UniProt P08922).
T3 construct: TRKA-wt (1 nM, BPS Bio, 40280) kinase domains in buffer; purchased Carna 08-163
In words: Biochemical kinase assay, ROS1-wt. The note with it: 2 mM ATP substrate solution, read-out: Ki^app ROS1-wt. The gist of the method: as §1

In test [2] the target is T4, ROS1-G2032R kinase domain (Homo sapiens, UniProt P08922, G2032R).
T4 construct: TRKA-wt (1 nM, BPS Bio, 40280) kinase domains in buffer; purchased SignalChem R14-12BG
Briefly: Biochemical kinase assay, ROS1-G2032R. The following applies: 2 mM ATP substrate solution, read-out: Ki^app ROS1-G2032R. Put shortly: as §1

A further test addresses T5, ALK-wt kinase domain (Homo sapiens, UniProt Q9UM73).
T5 construct: TRKA-wt (1 nM, BPS Bio, 40280) kinase domains in buffer; purchased Carna 08-518
Briefly: Biochemical kinase assay, ALK-wt. The note with it: 2 mM ATP substrate solution, read-out: Ki^app ALK-wt. The gist of the method:
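Apparent Ki values come from fitting initial reaction rates against inhibitor concentration to the Morrison equation. Rates were taken from the linear phase of fluorogenic substrate phosphorylation (AQT0101 for ALK and ROS1, AQT0104 for TRKA; 26 μM in substrate solution with 2 mM ATP), monitored at 485 nm over 120 min at 30° C.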

For the compound `CCn1ncc2c1-c1cnc(N)c(c1)OCc1cc(F)ccc1-n1nc(Cl)cc1C2` [Compound 75], the Ki on TRKA-wt kinase domain was 50 to 500 nM; in test [1], less than 50 nM; at ROS1-wt kinase domain, less than 50 nM; in test [2], less than 50 nM; on ALK-wt kinase domain it was less than 50 nM.

Regarding `CCn1nc(Cl)c2c1-c1cnc(N)c(c1)O[C@H](C)c1cc(F)ccc1-n1nc(C)cc1C2` [Compound 76], the Ki (at TRKA-wt kinase domain; in test [1]; on ROS1-wt kinase domain; in test [2]; on ALK-wt kinase domain) was less than 50 nM each time.

With `CCn1ncc2c1-c1cnc(N)c(c1)O[C@H](C)c1cc(F)ccc1-c1ncoc1C2` [Compound 77], the Ki is 50 to 500 nM at TRKA-wt kinase domain; less than 50 nM in test [1]; less than 50 nM at ROS1-wt kinase domain; less than 50 nM in test [2]; less than 50 nM at ALK-wt kinase domain.

For `CCn1nnc2c1-c1cnc(N)c(c1)O[C@H](C)c1cc(F)ccc1-c1nc(C)sc1C2` [Compound 78], the Ki at TRKA-wt kinase domain is 50 to 500 nM; in test [1] it was less than 50 nM; at ROS1-wt kinase domain, less than 50 nM; in test [2], less than 50 nM; at ALK-wt kinase domain, less than 50 nM.

For `Cc1nn(CC(F)F)c2c1Cc1cn(C)nc1-c1ccc(F)cc1[C@@H](C)Oc1cc-2cnc1N` [Compound 79], the Ki at TRKA-wt kinase domain is more than 500 nM; in test [1], less than 50 nM; on ROS1-wt kinase domain it was less than 50 nM; in test [2], less than 50 nM; on ALK-wt kinase domain it was less than 50 nM.

With `CCn1ncc2c1-c1cnc(N)c(c1)O[C@H](C)c1cc(F)ccc1-n1nc(Br)cc1C2` [Compound 80], the Ki (at TRKA-wt kinase domain; in test [1]; at ROS1-wt kinase domain; in test [2]; at ALK-wt kinase domain) was less than 50 nM each time.

Regarding `CCn1nc(C)c2c1-c1cnc(N)c(c1)O[C@H](C)c1cc(F)ccc1-c1nn(C)cc1C2` [Compound 81], the Ki is 50 to 500 nM on TRKA-wt kinase domain; less than 50 nM in test [1]; less than 50 nM on ROS1-wt kinase domain; less than 50 nM in test [2]; less than 50 nM on ALK-wt kinase domain.

Take `Cc1nc2c(s1)Cc1c(c(C#N)nn1C)-c1cnc(N)c(c1)O[C@H](C)c1cc(F)ccc1-2` [Compound 82]: the Ki on TRKA-wt kinase domain is 50 to 500 nM; in test [1] it was less than 50 nM; on ROS1-wt kinase domain, less than 50 nM; in test [2], less than 50 nM; on ALK-wt kinase domain, less than 50 nM.

Regarding `C[C@H]1Oc2cc(cnc2N)-c2c(c(Cl)nn2CC(F)F)Cc2cn(C)nc2-c2ccc(F)cc21` [Compound 83], the Ki was more than 500 nM on TRKA-wt kinase domain; less than 50 nM in test [1]; less than 50 nM on ROS1-wt kinase domain; less than 50 nM in test [2]; less than 50 nM at ALK-wt kinase domain.

For the compound `C[C@H]1Oc2cc(cnc2N)-c2c(cnn2CC(F)F)Cc2cc(C(F)(F)F)nn2-c2ccc(F)cc21` [Compound 84], the Ki on TRKA-wt kinase domain was more than 500 nM; in test [1] it was less than 50 nM; at ROS1-wt kinase domain, less than 50 nM; in test [2], less than 50 nM; on ALK-wt kinase domain, less than 50 nM.

On to `C[C@H]1Oc2cc(cnc2N)-c2c(CC(F)F)noc2Cc2cn(C)nc2-c2ccc(F)cc21` [Compound 85], for which the Ki is more than 500 nM on TRKA-wt kinase domain; less than 50 nM in test [1]; less than 50 nM at ROS1-wt kinase domain; less than 50 nM in test [2]; less than 50 nM on ALK-wt kinase domain.

In the case of `CCn1ncc2c1-c1cnc(N)c(c1)O[C@H](C)c1cc(F)ccc1-c1nn(C(F)F)cc1C2` [Compound 86], the Ki was more than 500 nM on TRKA-wt kinase domain; 50 to 500 nM in test [1]; less than 50 nM on ROS1-wt kinase domain; less than 50 nM in test [2]; less than 50 nM at ALK-wt kinase domain.

As to `CCn1ncc2c1-c1cnc(N)c(c1)O[C@H](C)c1cc(F)ccc1-c1nn(C)c(C)c1C2` [Compound 87], the Ki (at TRKA-wt kinase domain; in test [1]; at ROS1-wt kinase domain; in test [2]; on ALK-wt kinase domain) was less than 50 nM each time.

Consider `CCc1snc2c1-c1cnc(N)c(c1)O[C@H](C)c1cc(F)ccc1-c1nn(C)cc1C2` [Compound 88], for which the Ki at TRKA-wt kinase domain was 50 to 500 nM; in test [1] it was less than 50 nM; at ROS1-wt kinase domain, less than 50 nM; in test [2] it was less than 50 nM; at ALK-wt kinase domain, less than 50 nM.

With `CCn1ncc2c1-c1cnc(N)c(c1)OCc1cc(F)ccc1-c1nc(C)sc1C2` [Compound 89], the Ki was more than 500 nM on TRKA-wt kinase domain; less than 50 nM in test [1]; less than 50 nM at ROS1-wt kinase domain; less than 50 nM in test [2]; less than 50 nM at ALK-wt kinase domain.

For `CCc1noc2c1-c1cnc(N)c(c1)O[C@H](C)c1cc(F)cc(F)c1-c1nn(C)cc1C2` [Compound 90], the Ki at TRKA-wt kinase domain was 50 to 500 nM; in test [1], less than 50 nM; at ROS1-wt kinase domain, less than 50 nM; in test [2], less than 50 nM; at ALK-wt kinase domain, less than 50 nM.

Regarding `C[C@H]1Oc2cc(cnc2N)-c2c(cnn2CC2CC2)Cc2cc(C(F)(F)F)nn2-c2ccc(F)cc21` [Compound 91], the Ki on TRKA-wt kinase domain is 50 to 500 nM; in test [1], less than 50 nM; on ROS1-wt kinase domain, less than 50 nM; in test [2], less than 50 nM; at ALK-wt kinase domain, less than 50 nM.

As for `CCn1ncc2c1-c1cnc(N)c(c1)OCc1cc(F)ccc1-n1nc(C(F)(F)F)cc1C2` [Compound 92], the Ki was more than 500 nM at TRKA-wt kinase domain; less than 50 nM in test [1]; less than 50 nM on ROS1-wt kinase domain; less than 50 nM in test [2]; less than 50 nM at ALK-wt kinase domain.

For the compound `CCn1nnc2c1-c1cnc(N)c(c1)O[C@H](C)c1cc(F)ccc1-c1sncc1C2` [Compound 93], the Ki on TRKA-wt kinase domain was 50 to 500 nM; in test [1], less than 50 nM; on ROS1-wt kinase domain, less than 50 nM; in test [2], less than 50 nM; on ALK-wt kinase domain, less than 50 nM.

Turning to `C[C@H]1Oc2cc(cnc2N)-c2c(C#N)nn(C)c2Cc2scnc2-c2ccc(F)cc21` [Compound 94], the Ki at TRKA-wt kinase domain was 50 to 500 nM; in test [1] it was less than 50 nM; on ROS1-wt kinase domain, less than 50 nM; in test [2], less than 50 nM; on ALK-wt kinase domain it was less than 50 nM.

Regarding `CCn1ncc2c1-c1cnc(N)c(c1)O[C@H](C)c1cc(F)ccc1-n1nc(OC)cc1C2` [Compound 98], the Ki (at TRKA-wt kinase domain; in test [1]; at ROS1-wt kinase domain; in test [2]; at ALK-wt kinase domain) was less than 50 nM in each case.

In the case of `CCn1ncc2c1-c1cnc(N)c(c1)O[C@H](C)c1cc(F)ccc1-c1nocc1C2` [Compound 99], the Ki at TRKA-wt kinase domain is 50 to 500 nM; in test [1], less than 50 nM; on ROS1-wt kinase domain, less than 50 nM; in test [2], less than 50 nM; on ALK-wt kinase domain, less than 50 nM.

Regarding `C[C@H]1Oc2cc(cnc2N)-c2c(C#N)nn(C)c2Cc2cccnc2-c2ccc(F)cc21` [Compound 100], the Ki on TRKA-wt kinase domain is 50 to 500 nM; in test [1], less than 50 nM; on ROS1-wt kinase domain, less than 50 nM; in test [2], less than 50 nM; at ALK-wt kinase domain, less than 50 nM.

For `CCn1ncc2c1-c1cnc(N)c(c1)O[C@H](C)c1cc(F)ccc1-n1nc(C(F)F)cc1C2` [Compound 102], the Ki (on TRKA-wt kinase domain; in test [1]; at ROS1-wt kinase domain; in test [2]; on ALK-wt kinase domain) was less than 50 nM in each case.

As to `C[C@H]1Oc2cc(cnc2N)-c2c(C#N)nn(C)c2Cc2cc(Cl)nn2-c2ccc(F)cc21` [Compound 103], the Ki at TRKA-wt kinase domain was 50 to 500 nM; in test [1], less than 50 nM; on ROS1-wt kinase domain it was less than 50 nM; in test [2], less than 50 nM; on ALK-wt kinase domain, less than 50 nM.
